Measured values published in PMC6476888, “Design and synthesis of anticancer 1-hydroxynaphthalene-2-carboxanilides with a p53 independent mechanism of action” (Scientific Reports, 2019).
Where two headings read alike, the source gives them in different places.

Tests used:
HCT116^+/+ = assay: Antiproliferative assay (MTS, 72 h) on HCT116 wild type; assay type: cell-based, human; settings: MTS, 72 h incubation, read-out: Activity IC50 HCT116^+/+
Procedure: (§1) All of the synthesized compounds were tested for their antiproliferative activity against human colon cancer (Table 1). We used both the wild-type and p53-negative cell lines (HCT116^+/+ and HCT116^−/−, respectively). Mutations in the TP53 gene are present in more than 50% of all cancers and often specifically correspond to a difficult therapy, resistance or a bad prognosis[60]–[63]. The active compounds were additionally tested for their cytotoxicity against normal human fibroblasts. We used 5-fluorouracil (5-FLU), doxorubicin (DOX) and CP-31398 as the standards. 5-FLU is one of the first antimetabolites that was dedicated for cancer treatment and is still used for a wide range of cancers including colon carcinoma. Doxorubicin is a DNA topoisomerase II poison with a high intercalating potency, which is able to induce apoptosis through the p53 pathway. Although DOX has been described as being ineffective in some p53 mutants, its level of activity against the p53 null lines is similar. CP-31398, on the other hand, is an experimental drug in the clinical phase and its mechanism of action is through the reactivation some of p53 mutants. Its activity against the p53 null cell lines is greatly diminished and is actually lower than its cytotoxicity.
(§2) The human colon cancer cell line HCT116 wild type was obtained from ATCC and the normal human fibroblast cell lines NHDF were obtained from PromoCell. The human colon cancer cell line HCT116 with a p53 deletion (p53^−/−) was kindly provided by Prof. M. Rusin from the Maria Sklodowska-Curie Memorial Cancer Centre and Institute of Oncology in Gliwice, Poland[89]. The cells were grown as monolayer cultures in Dulbecco’s modified Eagle’s medium with the antibiotic gentamicin (200 μL/100 mL medium) in 75 cm^2 flasks (Nunc). The DMEM for the HCT116 were supplemented with 12% heat-inactivated fetal bovine serum (Sigma-Aldrich, St. Louis, MO, USA) and for NHDF with 15% non-inactivated fetal bovine serum (Sigma Aldrich, St. Louis, MO, USA). The cells were cultured under standard conditions at 37 °C in a humidified atmosphere at 5% CO2.
(§3) The cells were seeded in 96-well plates (Nunc) at a density of 5,000 cells/well (HCT116) and 4,000 cells/well (NHDF) and incubated at 37 °C for 24 h. The assay was performed following a 72 h incubation with varying concentrations of the compounds that were being tested. Then, 20 µL of CellTiter 96® AQueous One Solution-MTS (Promega) was added to each well (with 100 µL DMEM without phenol red) and incubated for 1 h at 37 °C. The optical densities of the samples were analyzed at 490 nm using a Synergy 4 multi-plate reader (BioTek, Winooski, VT, USA). The results are expressed as the percentage of the control and were calculated as the inhibitory concentration (IC50) values (using a GraphPad Prism 7). The IC50 parameter was defined as the compound concentration that was necessary to reduce the proliferation of cells to 50% of the untreated control. Each individual compound was tested in triplicate in a single experiment with each experiment being repeated three or four times.

HCT116^−/− = assay: Antiproliferative assay (MTS, 72 h) on HCT116 with p53 deletion; assay type: cell-based, human; settings: for IC50: MTS, 72 h incubation
Procedure: as §1, §2, §3

NHDF = assay: Cytotoxicity (MTS, 72 h) against normal human fibroblasts; assay type: cell-based; settings: MTS, 72 h incubation
Procedure: as §1, §2, §3

Structure (SMILES): O=C(Nc1cc(Br)ccc1Br)c1ccc2ccccc2c1O [6e]
- IC50 (HCT116^+/+): 5.24 ± 0.28 µM
- IC50 (HCT116^−/−): 5.85 ± 0.61 µM
- IC50 (NHDF): > 25 µM

Structure (SMILES): O=C(Nc1ccc(Br)cc1Cl)c1ccc2ccccc2c1O [5n]
- IC50 (HCT116^+/+): 2.33 ± 0.95 µM
- IC50 (HCT116^−/−): 9.79 ± 1.95 µM
- IC50 (NHDF): 23.4 ± 0.86 µM

Structure (SMILES): O=C(Nc1c(Br)cc(Br)cc1Br)c1ccc2ccccc2c1O [6g]
- IC50 (HCT116^+/+): > 25 µM
- IC50 (HCT116^−/−): > 25 µM

Structure (SMILES): COc1ccc(NC(=O)c2ccc3ccccc3c2O)cc1 [2c]
- IC50 (HCT116^+/+): > 25 µM
- IC50 (HCT116^−/−): > 25 µM

Structure (SMILES): O=C(Nc1ccc(C(F)(F)F)cc1[N+](=O)[O-])c1ccc2ccccc2c1O [8d]
- IC50 (HCT116^+/+): > 25 µM
- IC50 (HCT116^−/−): > 25 µM

Structure (SMILES): O=C(Nc1ccc(C(F)(F)F)cc1Cl)c1ccc2ccccc2c1O [5o]
- IC50 (HCT116^+/+): 4.92 ± 1.32 µM
- IC50 (HCT116^−/−): 5.41 ± 1.11 µM
- IC50 (NHDF): 13.2 ± 1.97 µM

Structure (SMILES): O=C(Nc1ccc(Br)cc1Br)c1ccc2ccccc2c1O [6d]
- IC50 (HCT116^+/+): 4.56 ± 0.43 µM
- IC50 (HCT116^−/−): 4.61 ± 0.72 µM
- IC50 (NHDF): > 25 µM

Structure (SMILES): Cc1ccccc1NC(=O)c1ccc2ccccc2c1O [3a]
- IC50 (HCT116^+/+): > 25 µM
- IC50 (HCT116^−/−): > 25 µM

Structure (SMILES): Cc1cccc(NC(=O)c2ccc3ccccc3c2O)c1 [3b]
- IC50 (HCT116^+/+): > 25 µM
- IC50 (HCT116^−/−): > 25 µM

Structure (SMILES): Cc1cccc(C)c1NC(=O)c1ccc2ccccc2c1O [3e]
- IC50 (HCT116^+/+; Homo sapiens, HCT-116): > 25 µM
- IC50 (HCT116^−/−; Homo sapiens, HCT-116): > 25 µM

Structure (SMILES): Cc1ccc(C)c(NC(=O)c2ccc3ccccc3c2O)c1 [3d]
- IC50 (HCT116^+/+; Homo sapiens, HCT-116): > 25 µM
- IC50 (HCT116^−/−; Homo sapiens, HCT-116): > 25 µM

Structure (SMILES): COc1cc(NC(=O)c2ccc3ccccc3c2O)cc(OC)c1 [2e, N-(3,5-dimethoxyphenyl)−1-hydroxynaphthalene-2-carboxamide]
- IC50 (HCT116^+/+; Homo sapiens, HCT-116): > 25 µM
- IC50 (HCT116^−/−; Homo sapiens, HCT-116): > 25 µM
- IC50 (NHDF; Homo sapiens, NHDF): > 25 µM

Structure (SMILES): O=C(Nc1c(F)c(F)c(Br)c(F)c1F)c1ccc2ccccc2c1O [4y]
- IC50 (HCT116^+/+): 2.41 ± 0.69 µM
- IC50 (HCT116^−/−): 5.68 ± 1.37 µM
- IC50 (NHDF): 7.87 ± 1.37 µM

Structure (SMILES): O=C(Nc1cccc(Br)c1)c1ccc2ccccc2c1O [6b]
- IC50 (HCT116^+/+): 9.19 ± 0.98 µM
- IC50 (HCT116^−/−): 8.73 ± 0.89 µM
- IC50 (NHDF): 15.2 ± 2.48 µM

Structure (SMILES): O=C(Nc1ccc(Cl)c(Cl)c1)c1ccc2ccccc2c1O [5h]
- IC50 (HCT116^+/+): 5.15 ± 0.5 µM
- selectivity towards the p53 null cells (HCT116 p53^−/− vs wild type) (HCT116^−/−): not selective
- IC50 (HCT116^−/−): 4.74 ± 0.82 µM
- IC50 (NHDF): > 25 µM

Structure (SMILES): O=C(Nc1cccc(C(F)(F)F)c1)c1ccc2ccccc2c1O [7b]
- IC50 (HCT116^+/+): 6.25 ± 0.47 µM
- IC50 (HCT116^−/−): 1.39 ± 0.29 µM
- IC50 (NHDF): > 25 µM

Structure (SMILES): O=C(Nc1cc(C(F)(F)F)ccc1C(F)(F)F)c1ccc2ccccc2c1O [7e]
- IC50 (HCT116^+/+): 4.44 ± 1.16 µM
- IC50 (HCT116^−/−): 8.53 ± 3.37 µM
- IC50 (NHDF): 22.9 ± 2.1 µM

Structure (SMILES): O=C(Nc1ccccc1Br)c1ccc2ccccc2c1O [6a]
- IC50 (HCT116^+/+): 22.5 ± 3.62 µM
- IC50 (HCT116^−/−): > 25 µM
- IC50 (NHDF): > 25 µM

Structure (SMILES): O=C(Nc1ccc(Br)cc1C(F)(F)F)c1ccc2ccccc2c1O [7i]
- IC50 (HCT116^+/+): > 25 µM
- IC50 (HCT116^−/−): > 25 µM

Structure (SMILES): COc1ccccc1NC(=O)c1ccc2ccccc2c1O [2a]
- IC50 (HCT116^+/+): > 25 µM
- IC50 (HCT116^−/−): > 25 µM

Structure (SMILES): COc1ccc(C(F)(F)F)cc1NC(=O)c1ccc2ccccc2c1O [2i]
- IC50 (HCT116^+/+; Homo sapiens, HCT-116): > 25 µM
- IC50 (HCT116^−/−; Homo sapiens, HCT-116): > 25 µM

Structure (SMILES): O=C(Nc1c(Br)cccc1Br)c1ccc2ccccc2c1O [6f]
- IC50 (HCT116^+/+): > 25 µM
- IC50 (HCT116^−/−): > 25 µM

Structure (SMILES): O=C(Nc1cccc(Cl)c1)c1ccc2ccccc2c1O [5b]
- IC50 (HCT116^+/+): 4.7 ± 0.4 µM
- IC50 (HCT116^−/−): 1.78 ± 0.32 µM
- IC50 (NHDF): > 25 µM

Structure (SMILES): O=C(Nc1c(Cl)cc(Cl)cc1Cl)c1ccc2ccccc2c1O [5k]
- IC50 (HCT116^+/+): 19.4 ± 1.27 µM
- IC50 (HCT116^−/−): > 25 µM
- IC50 (NHDF): > 25 µM

Structure (SMILES): O=C(Nc1ccccc1[N+](=O)[O-])c1ccc2ccccc2c1O [8a]
- IC50 (HCT116^+/+): 23.3 ± 3.77 µM
- IC50 (HCT116^−/−): > 25 µM
- IC50 (NHDF): 22.7 ± 2.71 µM

Structure (SMILES): COc1cc(NC(=O)c2ccc3ccccc3c2O)cc(OC)c1OC [2f]
- IC50 (HCT116^+/+): 6.54 ± 2.42 µM
- IC50 (HCT116^−/−): 8.78 ± 2.13 µM
- IC50 (NHDF): > 25 µM

Structure (SMILES): O=C(Nc1ccc(F)cc1)c1ccc2ccccc2c1O [4c]
- IC50 (HCT116^+/+): 2.49 ± 0.61 µM
- IC50 (HCT116^−/−): 5.01 ± 1.12 µM
- IC50 (NHDF): > 25 µM
